The record followed here is US20230167073A1 (Teijin Pharma Limited, priority 2020, published 2023).

Bounds are passed on as bounds.

For the assay, the target named is T1, Human TRPC6 (Homo sapiens, UniProt Q9Y210).
T1 construct: expressed in transfected cells
T1 sequence (Q9Y210 1-931): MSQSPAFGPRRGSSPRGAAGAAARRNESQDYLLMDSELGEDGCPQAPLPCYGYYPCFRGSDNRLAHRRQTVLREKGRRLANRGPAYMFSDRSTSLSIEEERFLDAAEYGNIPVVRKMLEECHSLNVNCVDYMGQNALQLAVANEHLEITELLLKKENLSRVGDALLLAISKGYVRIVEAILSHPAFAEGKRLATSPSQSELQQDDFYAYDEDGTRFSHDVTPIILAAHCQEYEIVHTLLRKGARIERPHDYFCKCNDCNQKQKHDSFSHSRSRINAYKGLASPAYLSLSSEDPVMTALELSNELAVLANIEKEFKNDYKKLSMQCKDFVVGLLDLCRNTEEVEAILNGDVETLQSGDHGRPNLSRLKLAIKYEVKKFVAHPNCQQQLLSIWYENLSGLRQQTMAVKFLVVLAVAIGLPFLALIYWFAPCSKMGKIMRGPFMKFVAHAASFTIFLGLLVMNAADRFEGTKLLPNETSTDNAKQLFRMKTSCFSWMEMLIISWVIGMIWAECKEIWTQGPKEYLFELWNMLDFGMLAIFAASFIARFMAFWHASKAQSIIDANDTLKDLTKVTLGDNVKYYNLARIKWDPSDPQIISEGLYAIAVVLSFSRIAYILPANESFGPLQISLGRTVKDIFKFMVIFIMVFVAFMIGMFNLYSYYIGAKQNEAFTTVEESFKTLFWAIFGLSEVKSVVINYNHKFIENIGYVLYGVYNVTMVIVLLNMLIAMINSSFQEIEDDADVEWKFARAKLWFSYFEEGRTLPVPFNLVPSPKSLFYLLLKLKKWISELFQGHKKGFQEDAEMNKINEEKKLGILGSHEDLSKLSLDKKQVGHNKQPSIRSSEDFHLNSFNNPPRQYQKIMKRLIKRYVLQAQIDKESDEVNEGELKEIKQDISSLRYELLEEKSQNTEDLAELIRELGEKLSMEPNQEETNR
The experiment in a line: Evaluation of TRPC6 channel inhibitory activity (1), FLIPR Calcium 5 Assay Kit, OAG stimulation (Compound Nos. 1-1293). The note with it: Human TRPC6 stably-expressing cells, OAG 30 μM, FLIPR Calcium 5 Assay Kit; read-out: Inhibitory activity (pIC50 class) (converted). The class given is cell-based. An outline of the steps: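 The FLIPR signal is maximum fluorescence after 30 μM OAG minus minimum before compound, measured in a human TRPC6 stable line loaded with Calcium 5 dye. Compounds were preincubated 20 min. pIC50 came from four-parameter logistic fitting of inhibition rates and is given as symbol ranges.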

Regarding `Cc1nc(Oc2cc(C#N)ccc2-c2cnn(C3CCNCC3)c2)cc(N2CCOCC2)n1` [Compound 239, 3-(2-methyl-6-morpholin-4-ylpyrimidin-4-yl)oxy-4-(1-piperidin-4-ylpyrazol-4-yl)benzonitrile], the IC50 is > 1000 nM. With `Cc1nc(Oc2cc(C#N)ccc2-c2ccc(C[C@H](N)C(N)=O)cc2)cc(-c2ccccc2)n1` [Compound 240, (2S)-2-amino-3-[4-[4-cyano-2-(2-methyl-6-phenylpyrimidin-4-yl)oxyphenyl]phenyl]propanamide], the IC50 was 10 to 1000 nM. Consider `Cc1cc(Oc2cc(C#N)ccc2-n2cc(C(O)CN)cn2)cc(N2CCOCC2)n1` (centres unmarked) [Compound 241, 4-[4-(2-amino-1-hydroxyethyl)pyrazol-1-yl]-3-(2-methyl-6-morpholin-4-ylpyridin-4-yl)oxybenzonitrile], for which the IC50 was < 10 nM. Consider `COCc1nn(C)c(Oc2cc(C#N)ccc2-c2ccc(CCN)cc2)c1C` [Compound 242, 4-[4-(2-aminoethyl)phenyl]-3-[5-(methoxymethyl)-2,4-dimethylpyrazol-3-yl]oxybenzonitrile], for which the IC50 is > 1000 nM.

With `CC(C)Cc1nn(C)c(Oc2cc(C#N)ccc2-c2ccc(CCN)cc2)c1C(C)C` [Compound 243, 4-[4-(2-aminoethyl)phenyl]-3-[2-methyl-5-(2-methylpropyl)-4-propan-2-ylpyrazol-3-yl]oxybenzonitrile], the IC50 is > 1000 nM.

As for `Cc1nc(Oc2cc(C#N)ccc2-n2cc([C@@H](O)CNC3COC3)cn2)cc(-c2ccccc2)n1` [Compound 244, 4-[4-[(1R)-1-hydroxy-2-(oxetan-3-ylamino)ethyl]pyrazol-1-yl]-3-(2-methyl-6-phenylpyrimidin-4-yl)oxybenzonitrile], the IC50 is 10 to 1000 nM.

For the compound `Cn1nc(COC2CCCC2)cc1Oc1cc(C#N)ccc1-c1ccc(CCN)cn1` [Compound 245, 4-[5-(2-aminoethyl)pyridin-2-yl]-3-[5-(cyclopentyloxymethyl)-2-methylpyrazol-3-yl]oxybenzonitrile], the IC50 is 10 to 1000 nM.

`N#Cc1ccc(-c2ncc(C(O)CN)s2)c(Oc2cnnc(-c3ccccc3)c2)c1` (centres unmarked) [Compound 246, 4-[5-(2-amino-1-hydroxyethyl)-1,3-thiazol-2-yl]-3-(6-phenylpyridazin-4-yl)oxybenzonitrile]: the IC50 was < 10 nM.

`Cc1nc(Oc2cc(C#N)ccc2-c2ccc(CC(C)(C)N)cc2)cc(N2CCOCC2)n1` [Compound 247, 4-[4-(2-amino-2-methylpropyl)phenyl]-3-(2-methyl-6-morpholin-4-ylpyrimidin-4-yl)oxybenzonitrile]: the IC50 was < 10 nM. On to `Cn1nc(-c2ccccc2)cc1Oc1cc(C#N)ccc1-c1ncc(C(O)CN)cn1` (centres unmarked) [Compound 248, 4-[5-(2-amino-1-hydroxyethyl)pyrimidin-2-yl]-3-(2-methyl-5-phenylpyrazol-3-yl)oxybenzonitrile], for which the IC50 is < 10 nM. As to `Cn1nc(-c2ccccn2)cc1Oc1cc(C#N)ccc1-c1ccc(C(O)CN)cn1` (centres unmarked) [Compound 249, 4-[5-(2-amino-1-hydroxyethyl)pyridin-2-yl]-3-(2-methyl-5-pyridin-2-ylpyrazol-3-yl)oxybenzonitrile], the IC50 was < 10 nM. In the case of `Cc1cc(Oc2cc(C#N)ccc2-c2ncc(CCN)cn2)cc(N2CCOCC2)n1` [Compound 250, 4-[5-(2-aminoethyl)pyrimidin-2-yl]-3-(2-methyl-6-morpholin-4-ylpyridin-4-yl)oxybenzonitrile], the IC50 was < 10 nM. For the compound `COC1CCN(c2cc(Oc3cc(C#N)ccc3-n3cc([C@@H](O)CN)cn3)nc(C)n2)CC1` [Compound 251, 4-[4-[(1R)-2-amino-1-hydroxyethyl]pyrazol-1-yl]-3-[6-(4-methoxypiperidin-1-yl)-2-methylpyrimidin-4-yl]oxybenzonitrile], the IC50 was > 1000 nM. For the compound `Cc1nc(Oc2cc(C#N)ccc2-n2cc([C@@H](O)CN)cn2)cc(N2CCC(F)(F)C2)n1` [Compound 252, 4-[4-[(1R)-2-amino-1-hydroxyethyl]pyrazol-1-yl]-3-[6-(3,3-difluoropyrrolidin-1-yl)-2-methylpyrimidin-4-yl]oxybenzonitrile], the IC50 is > 1000 nM. Take `Cc1nc(Oc2cc(C#N)ccc2-n2cc([C@@H](O)CN)cn2)cc(N2CCC(C(F)(F)F)CC2)n1` [Compound 253, 4-[4-[(1R)-2-amino-1-hydroxyethyl]pyrazol-1-yl]-3-[2-methyl-6-[4-(trifluoromethyl)piperidin-1-yl]pyrimidin-4-yl]oxybenzonitrile]: the IC50 is < 10 nM.

`Cc1cc(Oc2cc(C#N)ccc2-c2ccc(CCN)cn2)cc(N2CCCC2)n1` [Compound 254, 4-[5-(2-aminoethyl)pyridin-2-yl]-3-(2-methyl-6-pyrrolidin-1-ylpyridin-4-yl)oxybenzonitrile]: the IC50 is < 10 nM. On to `CC(C)OCc1cc(Oc2cc(C#N)ccc2-c2ccc(CCN)cn2)n(C)n1` [Compound 255, 4-[5-(2-aminoethyl)pyridin-2-yl]-3-[2-methyl-5-(propan-2-yloxymethyl)pyrazol-3-yl]oxybenzonitrile], for which the IC50 was 10 to 1000 nM. Turning to `Cc1nc(Oc2cc(C#N)ccc2-n2cc([C@@H](O)CN)cn2)cc(N2CCC(F)(F)CC2)n1` [Compound 256, 4-[4-[(1R)-2-amino-1-hydroxyethyl]pyrazol-1-yl]-3-[6-(4,4-difluoropiperidin-1-yl)-2-methylpyrimidin-4-yl]oxybenzonitrile], the IC50 was 10 to 1000 nM.

As for `Cc1nc(Oc2cc(C#N)ccc2-n2cc([C@@H](O)CN)cn2)cc(N2CCCC(F)(F)C2)n1` [Compound 257, 4-[4-[(1R)-2-amino-1-hydroxyethyl]pyrazol-1-yl]-3-[6-(3,3-difluoropiperidin-1-yl)-2-methylpyrimidin-4-yl]oxybenzonitrile], the IC50 was 10 to 1000 nM. As for `Cc1cc(Oc2cc(C#N)ccc2-c2ccc(CCN)cn2)cc(-c2ccccn2)n1` [Compound 258, 4-[5-(2-aminoethyl)pyridin-2-yl]-3-(2-methyl-6-pyridin-2-ylpyridin-4-yl)oxybenzonitrile], the IC50 was < 10 nM. Regarding `Cc1nc(Oc2cc(C#N)ccc2-n2cc(CCN)cn2)cc(N2CCOCC2)n1` [Compound 259, 4-[4-(2-aminoethyl)pyrazol-1-yl]-3-(2-methyl-6-morpholin-4-ylpyrimidin-4-yl)oxybenzonitrile], the IC50 is 10 to 1000 nM. As to `CCCc1cc(Oc2cc(C#N)ccc2-c2ncc(CCN)cn2)n(C)n1` [Compound 260, 4-[5-(2-aminoethyl)pyrimidin-2-yl]-3-(2-methyl-5-propylpyrazol-3-yl)oxybenzonitrile], the IC50 was < 10 nM. In the case of `CC(C)c1cc(Oc2cc(C#N)ccc2-c2ncc(CCN)cn2)n(C)n1` [Compound 261, 4-[5-(2-Aminoethyl)pyrimidin-2-yl]-3-(2-methyl-5-propan-2-ylpyrazol-3-yl)oxybenzonitrile], the IC50 was < 10 nM. Consider `Cc1cc(Oc2cc(C#N)ccc2-c2ncc(CCN)cn2)cc(N2CCCC2)n1` [Compound 262, 4-[5-(2-aminoethyl)pyrimidin-2-yl]-3-(2-methyl-6-pyrrolidin-1-ylpyridin-4-yl)oxybenzonitrile], for which the IC50 is < 10 nM. In the case of `Cc1nc(Oc2cc(C#N)ccc2-c2cnc(C(O)CN)s2)cc(-c2ccccc2)n1` (centres unmarked) [Compound 263, 4-[2-(2-amino-1-hydroxyethyl)-1,3-thiazol-5-yl]-3-(2-methyl-6-phenylpyrimidin-4-yl)oxybenzonitrile], the IC50 is 10 to 1000 nM. Consider `Cn1nc(C(F)(F)F)cc1Oc1cc(C#N)ccc1-c1ccc(CCN)cn1` [Compound 264, 4-[5-(2-aminoethyl)pyridin-2-yl]-3-[2-methyl-5-(trifluoromethyl)pyrazol-3-yl]oxybenzonitrile], for which the IC50 was < 10 nM.

For `Cc1nc(Oc2cc(C#N)ccc2-n2cc([C@@H](O)CN)cn2)cc(OC2CCCC2)n1` [Compound 265, 4-[4-[(1R)-2-amino-1-hydroxyethyl]pyrazol-1-yl]-3-(6-cyclopentyloxy-2-methylpyrimidin-4-yl)oxybenzonitrile], the IC50 is 10 to 1000 nM. Consider `Cc1nc(Oc2cc(C#N)ccc2-n2cc([C@@H](O)CN)cn2)cc(OC2CCCCC2)n1` [Compound 266, 4-[4-[(1R)-2-amino-1-hydroxyethyl]pyrazol-1-yl]-3-(6-cyclohexyloxy-2-methylpyrimidin-4-yl)oxybenzonitrile], for which the IC50 is < 10 nM. As for `Cc1nc(OCC(C)C)cc(Oc2cc(C#N)ccc2-n2cc([C@@H](O)CN)cn2)n1` [Compound 267, 4-[4-[(1R)-2-amino-1-hydroxyethyl]pyrazol-1-yl]-3-[2-methyl-6-(2-methylpropoxy)pyrimidin-4-yl]oxybenzonitrile], the IC50 was < 10 nM.
